Tests used:
[1] = Solubility of the color former in oil (KMC-113); format: physicochemical; details: in KMC-113 at 50°C
From the text: To examine the solubility of a color former in oil, the solubility of benzoylleucomethylene blue in KMC-113 (product of Kureha Chemical Industries Co., Ltd.) as a typical solvent commonly employed, was investigated.
To examine the solubility in oil of the triarylmethane compounds of the present invention, the solubility in KMC-113 (product of Kureha Chemical Industries Co., Ltd.) as a typical solvent was examined.

[2] = Color formation on silica gel (TLC) and light resistance of the formed color; details: for light resistance: color formed on silica gel TLC
Protocol: The color in the Table is the color formed on silica gel.
To a dilute hydrochloric acid aqueous solution prepared by diluting 25 parts of 35% hydrochloric acid with 130 parts of water, 30 parts of 4,4'-bisdimethylaminobenzhydrol and 22 parts of methyl 3-dimethylaminobenzoate were dissolved and reacted at a temperature of from 50 to 60°C for 5 hours. Then, 10 parts of active carbon was added thereto, and the mixture was thoroughly mixed. After removing active carbon by filtration, 150 parts of 10% sodium hydroxide and 100 parts of toluene were added to the filtrate and thoroughly mixed. The toluene layer was separated, then washed with 100 parts of water and separated. Then, this toluene layer was thoroughly dried over anhydrous sodium salfate. Then, this toluene layer was concentrated, and 100 parts of methanol was added to the residue thereby obtained. Precipitated crystals were collected by filtration and recrystallized from a solvent mixture comprising 50 parts of methanol and 50 parts of acetone to obtain 35 parts of bis((4-dimethylamino)phenyl)-(2-methoxycarbonyl-4-dimethylaminophenyl)methane.

Row | SMILES | solubility [1] | light resistance [2] | color formed on silica gel TLC [2]
1 | COC(=O)c1cc(N(C)C)ccc1C(c1ccc(N(C)C)cc1)c1ccc(N(C)C)cc1 [Preparation Example 1, bis((4-dimethylamino)phenyl)-(2-methoxycarbonyl-4-dimethylaminophenyl)methane] | at least 10% | excellent | gradually formed a clear blue color
2 | CC(C)OC(=O)c1cc(N(C)C)ccc1C(c1ccc(N(C)C)cc1)c1ccc(N(C)C)cc1 [Preparation Example 2, bis((4-dimethylamino)phenyl)-(2-isopropoxycarbonyl-4-dimethylaminophenyl)methane] | at least 10% | excellent | gradually formed a clear blue color
3 | CCCCOC(=O)c1cc(N(C)C)ccc1C(c1ccc(N(C)C)cc1)c1ccc(N(C)C)cc1 [Preparation Example 3, bis((4-dimethylamino)phenyl)-(2-n-butoxycarbonyl-4-dimethylaminophenyl)methane] | at least 10% | excellent | gradually formed a clear blue color

The next lines start with results.

Row | solubility [1] | light resistance [2] | SMILES | color formed on silica gel TLC [2]
4 |  | excellent | COC(=O)c1cc(N(C)C)ccc1C(c1ccc(N(C)C)cc1C)c1ccc(N(C)C)cc1C [Preparation Example 4, bis((2-methyl-4-dimethylamino)phenyl)-(2-methoxycarbonyl-4-dimethylaminophenyl)methane] | gradually formed a clear blue color
5 |  | excellent | CCOC(=O)c1cc(N(C)C)ccc1C(c1ccc(N(C)C)cc1C)c1ccc(N(C)C)cc1C [Preparation Example 5, bis((2-methyl-4-dimethylamino)phenyl)-(2-ethoxycarbonyl-4-dimethylaminophenyl)methane] | gradually formed a clear blue color
6 | 2.5% |  | CN(C)c1ccc2c(c1)Sc1cc(N(C)C)ccc1N2C(=O)c1ccccc1 [benzoylleucomethylene blue, reference compound] | 

Source: patent EP0486749A1, “Triarylmethane compounds and pressure sensitive recording material” (HODOGAYA CHEMICAL CO., LTD., priority 1991, dated 1992)
